Results on 23 compounds are retold here after patent US11236087B2, “Highly active pyrazolo-piperidine substituted indole-2-carboxamides active against the hepatitis B virus (HBV)” (AiCuris GmbH & Co. KG, priority 2017, dated 2022).

The test system of one data set is HBV. The data set is described as follows: Determination of HBV DNA from the supernatants of HepAD38 cells (anti-HBV activity). Type of data set: cell-based, hepatitis B virus. The conditions noted are these: Hepatitis B virus, 144 h; HBV DNA in HepAD38 supernatant, day 6, qPCR; read-out: Cell Activity (EC50). The gist of the method: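 HepAD38 cells, tetracycline withdrawn to induce HBV, treated with serial half-log compound dilutions; on day 6 HBV DNA purified from filtered supernatant and quantified by real-time PCR against HBV plasmid standards; EC50 from relative copy numbers by non-linear regression, three experiments in triplicate.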
For orientation: In qPCR the cycle at which signal appears reflects the starting amount.

In another data set the target is T1, HBV core protein (UniProt P03146).
T1 construct: fused on or other part: BODIPY-FL maleimide label on the C-terminal Cys150
T1 sequence (P03146 whole entry, looked up, the tested form may be a part): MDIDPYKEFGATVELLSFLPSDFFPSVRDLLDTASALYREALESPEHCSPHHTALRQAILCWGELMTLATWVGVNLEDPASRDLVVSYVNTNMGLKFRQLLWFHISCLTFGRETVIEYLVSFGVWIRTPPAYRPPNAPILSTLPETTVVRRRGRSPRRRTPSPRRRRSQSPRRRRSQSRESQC
The data set is described as follows: Biochemical capsid assembly assay (fluorescence quenching). More on the design: species or system hepatitis B virus. The conditions noted are these: read-out: Assembly Activity (IC50); BODIPY-FL labelled core protein, 300 μM NaCl, read 6 min after start. The gist of the method: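 Purified E. coli-expressed HBV core protein (aa 1-149 plus Cys150), BODIPY-FL maleimide-labelled, at 1.0-2.0 μM in 50 mM HEPES pH 7.5 with 0.5% DMSO was used. Compounds were tested at 8 concentrations (0.5-log dilutions from 100, 31.6 or 10 μM). Assembly was started with NaCl ([…]), and fluorescence quenching was read after 6 min (ex 477/em 525 nm). EC50 was determined by non-linear regression.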

Data set [1] is described as follows: Cell viability assay (AlamarBlue) in HepAD38 cells. The conditions noted are these: human. A general note: Resazurin is reduced to fluorescent resorufin, in cell work by metabolically active cells.

Where only a bound is given, the exact number is not on record here.

Broadly, the EC50 is the concentration giving half of the maximal effect. As usually defined, the IC50 is the point on the concentration scale where inhibition reaches its midpoint. A word on the CC50: it is the concentration at which the toxic effect on the cells reaches its halfway point.

On to `CON(C)C(=O)c1n[nH]c2c1CN(C(=O)c1cc3c(Cl)cc(F)cc3[nH]1)CC2` [Example 126, 5-(4-chloro-6-fluoro-1H-indole-2-carbonyl)-N-methoxy-N-methyl-1H,4H,5H,6H,7H-pyrazolo[4,3-c]pyridine-3-carboxamide], for which the concentration giving a half-maximal response (EC50) in the data set on HBV is less than 1 µM. Moreover, the IC50 on HBV core protein is less than 5 µM. Also, in data set [1], the 50% cytotoxic concentration (CC50) at 6 days is more than 32 µM.
The corresponding values for `CN(C(=O)c1n[nH]c2c1CN(C(=O)c1cc3ccccc3[nH]1)CC2)C1(C(F)(F)F)CC1` [Example 310, 5-(1H-indole-2-carbonyl)-N-methyl-N-[1-(trifluoromethyl)cyclopropyl]-1H,4H,5H,6H,7H-pyrazolo[4,3-c]pyridine-3-carboxamide] are 1 to 25 µM, less than 100 µM and more than 10 µM.
The corresponding values for `CC(O)CN(C)C(=O)c1n[nH]c2c1CN(C(=O)c1cc3ccccc3[nH]1)CC2` (stereo not drawn) [Example 41, N-(2-hydroxypropyl)-5-(1H-indole-2-carbonyl)-N-methyl-1H,4H,5H,6H,7H-pyrazolo[4,3-]pyridine-3-carboxamide] are less than 1 µM, less than 5 µM and more than 100 µM.
The corresponding values for `CN(CCO)C(=O)c1n[nH]c2c1CN(C(=O)c1cc3c(C(F)F)cccc3[nH]1)CC2` [Example 4, 5-[4-(difluoromethyl)-1H-indole-2-carbonyl]-N-(2-hydroxyethyl)-N-methyl-1H,4H,5H,6H,7H-pyrazolo[4,3-c]pyridine-3-carboxamide] are less than 1 µM, less than 5 µM and more than 10 µM.
With `CN(C(=O)c1[nH]nc2c1CN(C(=O)c1cc3ccccc3[nH]1)CC2)C1(CO)COC1` [Example 249, N-[3-(hydroxymethyl)oxetan-3-yl]-5-(1H-indole-2-carbonyl)-N-methyl-2H,4H,5H,6H,7H-pyrazolo[4,3-c]pyridine-3-carboxamide], the 50% effective concentration (EC50) in the data set on HBV was less than 1 µM. Further, on HBV core protein, the IC50 is less than 5 µM. In data set [1], this compound returned a half-maximal cytotoxic concentration (CC50) at 6 days of more than 10 µM.
The like results for `CCON=C(C)c1n[nH]c2c1CN(C(=O)c1cc3ccccc3[nH]1)CC2` [Example 273, ethoxy({1-[5-(1H-indole-2-carbonyl)-1H,4H,5H,6H,7H-pyrazolo[4,3-c]pyridin-3-yl]ethylidene})amine] were, in that order, 1 to 25 µM, less than 100 µM and more than 10 µM.
The like results for `CN(C(=O)c1n[nH]c2c1CN(C(=O)c1cc3ccccc3[nH]1)CC2)C1COC1` [Example 188, 5-(1H-indole-2-carbonyl)-N-methyl-N-(oxetan-3-yl)-1H,4H,5H,6H,7H-pyrazolo[4,3-c]pyridine-3-carboxamide] were, in that order, less than 1 µM, 5 to 10 µM and more than 10 µM.
As for `CS(=O)(=O)Nc1n[nH]c2c1CN(C(=O)c1cc3ccccc3[nH]1)CC2` [Example 82, N-[5-(1H-indole-2-carbonyl)-1H,4H,5H,6H,7H-pyrazolo[4,3-c]pyridin-3-yl]methanesulfonamide], the EC50 in the data set on HBV is less than 100 µM. Moreover, the IC50 at HBV core protein is less than 100 µM. This compound came in with a 50% cytotoxic concentration (CC50) at 6 days in data set [1] of more than 100 µM.
Turning to `CN(C(=O)c1n[nH]c2c1CN(C(=O)c1cc3ccccc3[nH]1)CC2)C1(COCC(F)F)CC1` [Example 360, N-{1-[(2,2-difluoroethoxy)methyl]cyclopropyl}-5-(1H-indole-2-carbonyl)-N-methyl-1H,4H,5H,6H,7H-pyrazolo[4,3-c]pyridine-3-carboxamide], the EC50 with HBV was less than 1 µM. The IC50 at HBV core protein is less than 5 µM. The compound also gave a CC50 at 6 days in data set [1] of more than 10 µM.
The corresponding values for `CN(C(=O)c1n[nH]c2c1CN(C(=O)c1cc3ccccc3[nH]1)CC2)C1(CC#N)CC1` [Example 361, N-[1-(cyanomethyl)cyclopropyl]-5-(1H-indole-2-carbonyl)-N-methyl-1H,4H,5H,6H,7H-pyrazolo[4,3-c]pyridine-3-carboxamide] are 1 to 25 µM, less than 5 µM and more than 10 µM.
The like results for `CN(C(=O)c1n[nH]c2c1CN(C(=O)c1cc3ccccc3[nH]1)CC2)C1(COC(F)F)CC1` [Example 318, N-{1-[(difluoromethoxy)methyl]cyclopropyl}-5-(1H-indole-2-carbonyl)-N-methyl-1H,4H,5H,6H,7H-pyrazolo[4,3-c]pyridine-3-carboxamide] were, in that order, less than 1 µM, less than 5 µM and more than 10 µM.
On to `CNC(C)(C)COC(=O)c1n[nH]c2c1CN(C(=O)c1cc3ccccc3[nH]1)CC2` [Example 31, 2-methyl-2-(methylamino)propyl 5-(1H-indole-2-carbonyl)-1H,4H,5H,6H,7H-pyrazolo[4,3-c]pyridine-3-carboxylate], for which the concentration for a half-maximal effect (EC50) in the data set with HBV lay in the range of 1 to 25 µM. For the same compound, the half-maximal inhibitory concentration (IC50) on HBV core protein lay within 5 to 10 µM. This compound came in with a cytotoxic concentration (CC50) at 6 days in data set [1] of more than 100 µM.
The like results for `O=C(c1cc2cccc(Cl)c2[nH]1)N1CCc2[nH]ncc2C1` [Example 120, 7-chloro-2-{1H,4H,5H,6H,7H-pyrazolo[4,3-c]pyridine-5-carbonyl}-1H-indole] were, in that order, less than 1 µM, 5 to 10 µM and more than 100 µM.
The corresponding values for `CCc1cccc2[nH]c(C(=O)N3CCc4[nH]nc(C(=O)N(C)C5(COC)CC5)c4C3)cc12` [Example 270, 5-(4-ethyl-1H-indole-2-carbonyl)-N-[1-(methoxymethyl)cyclopropyl]-N-methyl-1H,4H,5H,6H,7H-pyrazolo[4,3-c]pyridine-3-carboxamide] are less than 1 µM, less than 5 µM and more than 10 µM.
The corresponding values for `CON(C)C(=O)c1n[nH]c2c1CN(C(=O)c1cc3c(Cl)cccc3[nH]1)CC2` [Example 113, 5-(4-chloro-1H-indole-2-carbonyl)-N-methoxy-N-methyl-1H,4H,5H,6H,7H-pyrazolo[4,3-c]pyridine-3-carboxamide] are less than 1 µM, less than 5 µM and more than 100 µM.
In the case of `O=C(c1cc2c(F)ccc(F)c2[nH]1)N1CCc2n[nH]c(-c3cscn3)c2C1` [Example 17, 4,7-difluoro-2-[3-(1,3-thiazol-4-yl)-2H,4H,5H,6H,7H-pyrazolo[4,3-c]pyridine-5-carbonyl]-1H-indole], the EC50 in the data set with HBV was less than 1 µM. At HBV core protein, the IC50 is less than 5 µM. In data set [1], this compound displayed a CC50 at 6 days of more than 10 µM.
With `COCC1(N(C(=O)c2n[nH]c3c2CN(C(=O)c2cc4ccccc4[nH]2)CC3)C(C)C)CC1` [Example 304, 5-(1H-indole-2-carbonyl)-N-[1-(methoxymethyl)cyclopropyl]-N-(propan-2-yl)-1H,4H,5H,6H,7H-pyrazolo[4,3-c]pyridine-3-carboxamide], the EC50 with HBV is less than 1 µM. Further, the half-maximal inhibitory concentration (IC50) on HBV core protein is less than 5 µM. Moreover, the CC50 at 6 days in data set [1] was more than 10 µM.
The like results for `O=C(NCC1CCOC1)c1n[nH]c2c1CN(C(=O)c1cc3ccccc3[nH]1)CC2` (stereo not drawn) [Example 96, 5-(1H-indole-2-carbonyl)-N-[(oxolan-3-yl)methyl]-1H,4H,5H,6H,7H-pyrazolo[4,3-c]pyridine-3-carboxamide] were, in that order, 1 to 25 µM, less than 100 µM and more than 100 µM.
The like results for `O=C(c1cc2ccccc2[nH]1)N1CCc2[nH]nc(C(=O)N3CCCN3)c2C1` [Example 124, 2-[3-(pyrazolidine-1-carbonyl)-1H,4H,5H,6H,7H-pyrazolo[4,3-c]pyridine-5-carbonyl]-1H-indole] were, in that order, less than 1 µM, less than 5 µM and more than 32 µM.
The like results for `O=C(c1cc2ccccc2[nH]1)N1CCc2[nH]nc(C(=O)N3CCC[C@H](O)C3)c2C1` [Example 162, (3S)-1-[5-(1H-indole-2-carbonyl)-1H,4H,5H,6H,7H-pyrazolo[4,3-c]pyridine-3-carbonyl]piperidin-3-ol] were, in that order, 1 to 25 µM, less than 100 µM and more than 10 µM.
Take `COCC1(N(C)C(=O)c2n[nH]c3c2CN(C(=O)c2cc4cc(F)c(F)cc4[nH]2)CC3)CC1` [Example 300, 5-(5,6-difluoro-1H-indole-2-carbonyl)-N-[1-(methoxymethyl)cyclopropyl]-N-methyl-1H,4H,5H,6H,7H-pyrazolo[4,3-c]pyridine-3-carboxamide]: in the data set on HBV, the EC50 is less than 1 µM. On HBV core protein, the IC50 was less than 5 µM. In data set [1], this compound yielded a half-maximal cytotoxic concentration (CC50) at 6 days of more than 10 µM.
`COCC1(N(C)C(=O)c2n[nH]c3c2CN(C(=O)c2cc4c(C(F)F)cc(F)cc4[nH]2)CC3)CC1` [Example 298, 5-[4-(difluoromethyl)-6-fluoro-1H-indole-2-carbonyl]-N-[1-(methoxymethyl)cyclopropyl]-N-methyl-1H,4H,5H,6H,7H-pyrazolo[4,3-c]pyridine-3-carboxamide]: the EC50 in the data set with HBV is less than 1 µM. The IC50 on HBV core protein is less than 5 µM. Further, in data set [1], the CC50 at 6 days is more than 10 µM.
The like results for `C#CCOCC1(N(C)C(=O)c2n[nH]c3c2CN(C(=O)c2cc4ccccc4[nH]2)CC3)CC1` [Example 315, 5-(1H-indole-2-carbonyl)-N-methyl-N-{1-[(prop-2-yn-1-yloxy)methyl]cyclopropyl}-1H,4H,5H,6H,7H-pyrazolo[4,3-c]pyridine-3-carboxamide] were, in that order, less than 1 µM, less than 5 µM and more than 10 µM.
